In US7087385B2, “Promoter sequences for urocortin II and the use thereof” (Wisconsin Alumni Research Foundation, priority 2002, dated 2006):
Where no end group is shown, it is not given here.

Legend:
human UCN II promoter [1] = assay: Dexamethasone induced expression from UCN II promoter fragments in CATH.a cultures; assay type: cell-based, mouse; details: 20 μM dexamethasone, 22 h
Description: (§1) The above constructs containing the human UCN II promoter fragments placed upstream of the firefly luciferase gene can be used to transfect immortalized cell lines. The constructs can be transfected into CHO-K1 cell lines using Lipofectamine 2000 (Invitrogen Life Technologies). Primary cultures of the central nervous system, as well as additional immortalized cell lines, are also appropriate for these transfections. To control for transfection efficiency, the cells can also be co-transfected with the pRL-TK vector (Promega). The pRL-TK vector contains the Renilla luciferase gene downstream of the herpes simplex virus thymidine kinase promoter, a promoter which provides low to moderate levels of expression. Cell lysates can be assayed for total protein using the BCA assay (Pierce, Rockford, Ill.) to standardize for the protein extraction. The level of reporter gene expression from a standardized amount of cell extract can be quantified by measuring luciferase activity using a luminometer (EG&G Wallac, Gaithersburg, Md.) and the dual-luciferase reporter assay system (Promega). Firefly luciferase activity reflects UCN II promoter activity and Renilla luciferase activity can be used to normalize data between experiments.
In the following experiments, we confirmed the dexamethasone treatment results in the CATH.a cell line. Using the methods described previously, CATH.a cultures were transiently transfected with the UCN II promoter constructs. Immediately following transfection equal numbers of cultures (N=12 per group) were treated with either 20 μM dexamethasone or were given vehicle. Twenty-two hours following treatment, the cultures were harvested and assayed for luciferase activity (see FIG. 7).

human UCN II promoter [2] = assay: Dexamethasone induced expression from UCN II promoter fragments in CHO-K1 cultures; assay type: cell-based, hamster; details: 20 μM dexamethasone, 22 h
Description: as §1
Using the methods described previously, CHO-K1 cultures were transiently transfected with the UCN II promoter constructs. […]

human UCN II promoter [3] = assay: CRF induced expression from UCN II promoter fragments in CATH.a cultures; assay type: cell-based; details: 1 μM CRF, 22 h
Description: as §1
Using the methods described previously, CATH.a cultures were transiently transfected with the UCN II promoter constructs. Immediately following transfection equal numbers of cultures (N=4 per group) were treated with either 1 μM CRF or with vehicle. Twenty-two hours following treatment, the cultures were harvested and assayed for luciferase activity (see FIG. 8). CATH.a cultures are known to express CRF receptors and both CRF and UCN II are known ligands for the receptors. […] The goal of the present experiment was to determine if CRF receptor-dependent second messenger system activation affected UCN II gene expression.

Compound	decrease in expression compared to vehicle, −1426 construct (human UCN II promoter [1])	decrease in expression compared to vehicle, −1987 construct (human UCN II promoter [1])	expression within the remaining constructs vs vehicle (human UCN II promoter [1])	decrease in expression compared to vehicle, −1426 construct (human UCN II promoter [2])	expression within the remaining constructs vs vehicle (human UCN II promoter [2])	expression within the remaining constructs vs vehicle (human UCN II promoter [3])	increase in expression over vehicle, −1426 construct (human UCN II promoter [3])	increase in expression over vehicle, −1987 construct (human UCN II promoter [3])	expression within the −1987 and −1426 constructs vs vehicle (human UCN II promoter [3]; P<0.05 for −1987, P<0.001 for −1426, preliminary data)
C[C@@H]1C[C@H]2[C@@H]3CCC4=CC(=O)C=C[C@]4(C)[C@@]3(F)[C@@H](O)C[C@]2(C)[C@@]1(O)C(=O)CO [dexamethasone]	39%	29%	no effect	15%	no significant effect				
corticotropin-releasing factor (SEEPPISLDLTFHLLREVLEMARAEQLAQQAHSNRKLMEII; ends and bridges not checked; UniProt P06850 154-194, looked up) [CRF, neurotransmitter peptide, ligand of CRF receptors]						no significant effect	52%	29%	significantly increased expression
